Test results from patent US10634663B2, “Determination of binding constants by means of equilibrium shifting” (Sovicell GmbH, priority 2014, dated 2020).

System: Human plasma
Assay: Equilibrium shifting: dissociation constant for soluble target and fraction bound to whole human plasma
Experimental: Determination of the affinity or dissociation constants is carried out in an advantageous embodiment according to equation I:
[formula] wherein a plurality of binding constant values for KD^H and KD^P are first inserted into the equation and the respective APA concentrations to be expected for these values are calculated. The calculated APA concentrations are then compared with the measured APA concentration. In a further step, the smallest deviation between the calculated APA concentration and the measured APA concentration is determined by means of a numerical optimization method, preferably the “least squares” optimization method, and the formula γ=(APAmeasured−APAcalculated)^2. The lowest value for the deviation is selected from these deviations. […]
10 μL each of a 10 to 2000 μM stock solution of the test substances is added to the cavities. […] The concentration in the supernatant is determined by means of suitable methods, such as LC/MS/MS or scintillation counting. The unbound fraction of the substance is determined in cavities with the immobilized target relative to the reference samples. This obviates the need for calibration, as long as the signal to concentration ratio for the test substances and the quantitation system used follow a linear course. […]

fraction of the peptide bound to whole human plasma (undiluted) (calculated from KD^P and [P] 600 μM): 98.8% | peptide dissolved in the plasma in free, or unbound, form (whole human plasma (undiluted)): 1.2%
Structure (SMILES): CCCCCCCCCCCCCCCC(=O)N[C@@H](CCC(=O)NCCCC[C@H](NC(=O)[C@H](C)NC(=O)[C@H](C)NC(=O)[C@H](CCC(N)=O)NC(=O)CNC(=O)[C@H](CCC(=O)O)NC(=O)[C@H](CC(C)C)NC(=O)[C@H](Cc1ccc(O)cc1)NC(=O)[C@H](CO)NC(=O)[C@H](CO)NC(=O)[C@@H](NC(=O)[C@H](CC(=O)O)NC(=O)[C@H](CO)NC(=O)[C@@H](NC(=O)[C@H](Cc1ccccc1)NC(=O)[C@@H](NC(=O)CNC(=O)[C@H](CCC(=O)O)NC(=O)[C@H](C)NC(=O)[C@@H](N)Cc1cnc[nH]1)[C@@H](C)O)[C@@H](C)O)C(C)C)C(=O)N[C@@H](CCC(=O)O)C(=O)N[C@@H](Cc1ccccc1)C(=O)N[C@H](C(=O)N[C@@H](C)C(=O)N[C@@H](Cc1c[nH]c2ccccc12)C(=O)N[C@@H](CC(C)C)C(=O)N[C@H](C(=O)N[C@@H](CCCNC(=N)N)C(=O)NCC(=O)N[C@@H](CCCNC(=N)N)C(=O)NCC(=O)O)C(C)C)[C@@H](C)CC)C(=O)O [liraglutide]
